Reference: PMC9697131, “Agomelatine, Ketamine and Vortioxetine Attenuate Energy Cell Metabolism—In Vitro Study” (International Journal of Molecular Sciences, 2022)

How the values were obtained:
[1] = tested on: complex II+III (succinate cytochrome c oxidoreductase); experiment: Complex II+III (succinate cytochrome c oxidoreductase) activity, spectrophotometric; type: biochemical; conditions: 100 μM drug; pig brain mitochondria; mean ± SD
Experimental: (§1) Pig brains were obtained from a slaughterhouse. Mitochondrial fraction isolation and purification from brain cortex were performed as previously described. Briefly, grey matter from pig brains was homogenized and crude mitochondrial fraction was isolated and then centrifuged on the sucrose gradient to obtain purified mitochondrial fraction. The freshly purified mitochondria were kept on ice until the assays were performed and were used for measurements of the mitochondrial oxygen consumption rate, measurements of ATP and ROS formation. Frozen mitochondria (stored at −70 °C) were used for the following enzyme activity measurements: ETC complexes, citrate synthase (CS) and malate dehydrogenase (MDH) activity.
(§2) Ultrasonication and incubation of mitochondria with the tested drugs for 30 min at 30 °C was performed before measurement with a corresponding drug-free control (DMSO) for every measurement. Mitochondrial enzymes activities were determined spectrophotometrically as absorbance using a GENESYS 180 UV-Vis Spectrophotometer (Thermo Fisher Scientific, Waltham, MA, USA).
The activity of complex II+III was measured with an antimycin A-sensitive cyt c reduction at 550 nm for 3 min, and it was initiated by the addition of cyt c. The medium consisted of KH2PO4, EDTA, KCN and rotenone. The final protein concentration was 50 µg/mL and final drugs concentrations 2.5, 5, 10, 50 and 100 µM. Drug-free control (DMSO) was used as a control for each measurement.

citrate synthase (CS) = molecular target: T1, citrate synthase (CS) (Sus scrofa, UniProt P00889); experiment: Citrate synthase activity; type: biochemical, pig; conditions: mean, N=3
T1 construct: Frozen mitochondria (stored at −70 °C) were used for the following enzyme activity measurements: ETC complexes, citrate synthase (CS) and malate dehydrogenase (MDH) activity; from tissue; host or cells: pig brain cortex, purified mitochondrial fraction (frozen, sonicated)
T1 sequence (P00889 28-464): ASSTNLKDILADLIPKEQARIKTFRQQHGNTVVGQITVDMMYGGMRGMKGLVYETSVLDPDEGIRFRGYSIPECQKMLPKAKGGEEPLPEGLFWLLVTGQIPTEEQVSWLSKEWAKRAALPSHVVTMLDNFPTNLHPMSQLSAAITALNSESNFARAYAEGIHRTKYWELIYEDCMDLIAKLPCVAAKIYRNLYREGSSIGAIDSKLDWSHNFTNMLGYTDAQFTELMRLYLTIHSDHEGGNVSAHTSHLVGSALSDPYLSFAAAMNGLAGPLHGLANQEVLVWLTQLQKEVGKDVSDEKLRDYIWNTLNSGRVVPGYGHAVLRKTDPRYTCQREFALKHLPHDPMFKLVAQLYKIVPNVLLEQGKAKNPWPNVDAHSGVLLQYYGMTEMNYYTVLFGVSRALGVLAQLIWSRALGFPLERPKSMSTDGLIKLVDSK
Experimental: as §1, §2
The reaction mixture consisted of Triton, Tris, 5,5′-dithiobis-(2-nitrobenzoic) acid and acetyl coenzyme A. The reaction was started by adding oxaloacetate and the CS activity was measured by detecting the color change of 5,5′-dithiobis-(2-nitrobenzoic) acid at 412 nm with a duration of 3 min. […]

[2] = molecular target: T2, malate dehydrogenase (MDH) (Sus scrofa, UniProt P00346); experiment: Malate dehydrogenase activity; type: biochemical, pig; conditions: mean, N=3
T2 construct: Frozen mitochondria (stored at −70 °C) were used for the following enzyme activity measurements: ETC complexes, citrate synthase (CS) and malate dehydrogenase (MDH) activity; from tissue; host or cells: pig brain cortex, purified mitochondrial fraction (frozen, sonicated)
T2 sequence (P00346 25-338): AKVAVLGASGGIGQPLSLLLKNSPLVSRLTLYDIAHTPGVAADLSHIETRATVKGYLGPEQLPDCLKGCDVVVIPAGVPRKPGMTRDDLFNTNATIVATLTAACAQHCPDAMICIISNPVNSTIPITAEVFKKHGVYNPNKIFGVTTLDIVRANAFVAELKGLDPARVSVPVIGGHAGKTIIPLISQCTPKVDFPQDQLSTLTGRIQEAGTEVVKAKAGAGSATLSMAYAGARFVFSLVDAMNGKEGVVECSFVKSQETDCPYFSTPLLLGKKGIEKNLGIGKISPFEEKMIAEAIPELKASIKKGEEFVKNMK
Experimental: as §1, §2
The conversion of oxaloacetate to malate was used to measure the activity, and it was measured at 340 nm for 3 min. The reaction was initiated by adding oxaloacetate and nicotinamide adenine dinucleotide (NADH). […]

[3] = tested on: complex I-linked ATP content, pig brain mitochondria; experiment: Complex I-linked ATP content, bioluminescence; type: biochemical; conditions: for complex I-linked ATP content (relative to control = 100%): mean ± SD
Experimental: as §1
The following protocol has been modified and optimized. An ATP Bioluminescence Assay Kit CLS II was used to measure ATP content and kinetics. The luminescence was measured using FluoroMax-3 (Jobin Yvon, Edison, NJ, USA) at 562 nm. Standard curve for ATP determination was prepared from ATP standard in the range from 0 to 600 nM. Tested substances were used at final concentrations 10, 50 and 100 µM, with drug-free control (DMSO) for each measurement and the final protein concentration was 50 µg/mL.
Mitochondria were incubated for 30 min on ice with the MiR05 buffer, tested substances and mitochondria. Consequently, the substrate mix was added, consisting of 5 mM malate and 5 mM pyruvate (for complex I) or 5 mM succinate and 1 μM rotenone (for complex II), 60 μM ADP and 0.75 mM MgCl2·6H2O and incubated for 30 min in 30 °C. Reaction was stopped by heating vials at 100 °C for 2 min. Background luminescence was measured. In total, 230 µL of luciferase reagent was added and total ATP° content for complex I and complex II+III was determined by measuring the luminescence for 1 min. Drug-free control (DMSO) was part of each measurement.

[4] = tested on: total H2O2 content, pig brain mitochondria; experiment: Hydrogen peroxide production, Amplex Red; type: biochemical; conditions: for total H2O2 content (relative to control = 100%): mean ± SD
Experimental: as §1
Hydrogen peroxide formation was determined using an Amplex Red Hydrogen Peroxide/Peroxidase Assay Kit. The reaction mixture consisted of 27 mM HEPES (pH 7.4), 114 mM sucrose, 100 mM KCl, 1.3 mM K2HPO4, 5 mM malate, 5 mM pyruvate, 1 µM rotenone, 10 mM succinate, 0.75 mM MgCl2, […], 15 µM Amplex Red and horseradish peroxidase 0.09 U/ML. […] The reaction was stopped by the addition of antimycin A. The standard curve for hydrogen peroxide was prepared using H2O2 standard.

| Structure (SMILES) | complex II+III activity (relative to control = 100%) [1] | CS (% of Control) (citrate synthase (CS); 10 μM drug) | CS (% of Control) (citrate synthase (CS); 100 μM drug) | MDH (% of Control) ([2]; 10 μM drug) | MDH (% of Control) ([2]; 100 μM drug) | complex I-linked ATP content (relative to control = 100%) ([3]; 10 μM drug) | total H2O2 content (relative to control = 100%) ([4]; 10 μM drug) | complex I-linked ATP content (relative to control = 100%) ([3]; 100 μM drug) | total H2O2 content (relative to control = 100%) ([4]; 50 μM drug) | total H2O2 content (relative to control = 100%) ([4]; 100 μM drug) | effect on complex I-linked ATP content (in words) ([3]; 10, 50 and 100 µM) | effect on total H2O2 production (in words) ([4]; 10, 50 and 100 µM) |
| --- | --- | --- | --- | --- | --- | --- | --- | --- | --- | --- | --- | --- |
| COc1ccc2cccc(CCNC(C)=O)c2c1 [agomelatine] | 94.9 ± 4.3% | 108.8 % of Control | 95.7 % of Control | 101.7 % of Control | 101.0 % of Control | 106.4 ± 4.0% | 130.1 ± 2.7% |  |  |  |  |  |
| Cc1ccc(Sc2ccccc2N2CCNCC2)c(C)c1 [vortioxetine] | 43.9 ± 1.2% | 109.3 % of Control | * 96.9 % of Control | 106.9 % of Control | 100.2 % of Control |  |  | 119.0 ± 10.6% | 124.5 ± 2.5% | 85.4 ± 5.0% |  |  |
| CNC1(c2ccccc2Cl)CCCCC1=O (stereo not shown) [ketamine] | 93.6 ± 2.6% | 107.3 % of Control | 97.4 % of Control | 97.4 % of Control | 101.7 % of Control |  |  |  |  |  | no significant effect | no statistically significant effect |
